The values below come from publication PMC3651043 (Biochemistry, 2013).

Assay [1] addresses tKSI (ketosteroid isomerase from Comamonas testosteroni) (Comamonas testosteroni, UniProt P00947, D38A). Put plainly: intrinsic fluorescence quenching. The format is binding.
The target in assay [2] is pKSI (ketosteroid isomerase from Pseudomonas putida) (Pseudomonas putida, UniProt P07445). Put plainly: intrinsic fluorescence quenching. The format is binding.
Assay [3] addresses tKSI (ketosteroid isomerase from Comamonas testosteroni) (Comamonas testosteroni, UniProt P00947). The experiment in a line: intrinsic fluorescence quenching. The format is binding.
Assay [4] has as its target pKSI (ketosteroid isomerase from Pseudomonas putida) (Pseudomonas putida, UniProt P07445, D40A). Put plainly: intrinsic fluorescence quenching. The class given is binding.
Assay [5] addresses pKSI (ketosteroid isomerase from Pseudomonas putida) (Pseudomonas putida, UniProt P07445, D40N). Put plainly: biochemical.
Assay [6] deals with tKSI (ketosteroid isomerase from Comamonas testosteroni) (Comamonas testosteroni, UniProt P00947, D38N). Put plainly: biochemical.
tKSI (ketosteroid isomerase from Comamonas testosteroni) (Comamonas testosteroni, UniProt P00947, D38N), sequence (P00947 whole entry D38N): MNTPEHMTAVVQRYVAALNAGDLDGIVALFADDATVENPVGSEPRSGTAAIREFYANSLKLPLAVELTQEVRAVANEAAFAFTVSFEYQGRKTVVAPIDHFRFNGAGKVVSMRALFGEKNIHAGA

tKSI (ketosteroid isomerase from Comamonas testosteroni) (Comamonas testosteroni, UniProt P00947), sequence (P00947 whole entry): as the sequence (P00947 whole entry D38N) above, with N38D counted along it
pKSI (ketosteroid isomerase from Pseudomonas putida) (Pseudomonas putida, UniProt P07445, D40A), sequence (P07445 whole entry D40A): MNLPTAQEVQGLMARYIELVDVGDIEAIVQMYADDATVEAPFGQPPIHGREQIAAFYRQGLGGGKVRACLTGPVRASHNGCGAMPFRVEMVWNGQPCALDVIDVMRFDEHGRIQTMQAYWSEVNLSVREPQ
pKSI (ketosteroid isomerase from Pseudomonas putida) (Pseudomonas putida, UniProt P07445), sequence (P07445 whole entry): as the sequence (P07445 whole entry D40A) above, with A40D counted along it
tKSI (ketosteroid isomerase from Comamonas testosteroni) (Comamonas testosteroni, UniProt P00947, D38A), sequence (P00947 whole entry D38A): as the sequence (P00947 whole entry D38N) above, with N38A counted along it
pKSI (ketosteroid isomerase from Pseudomonas putida) (Pseudomonas putida, UniProt P07445, D40N), sequence (P07445 whole entry D40N): as the sequence (P07445 whole entry D40A) above, with A40N counted along it

One may read the Kd as the constant that tells how readily two partners part at equilibrium. Read a low Kd as higher affinity. Take `C[C@]12CCC(=O)C=C1CC[C@@H]1[C@@H]2CC[C@]2(C)C(=O)CC[C@@H]12` [4-androstene-3,17-dione]: the Kd in assay [1] was 0.909 µM; in assay [2], 62.5 µM; in assay [3], 62.5 µM; in assay [4], 0.385 µM; in assay [5], 1.33 µM; in assay [6] it was 15.9 µM.
